Reference: article PMC12040169 (PLOS Biology, 2025)

Test: in vitro
Conditions: human, hela cells, % viability

SMILES | viability at 28.5 h, 10 µM [%]
Clc1cc(Cl)cc(-c2cn3ccnc3c(NCc3ccncc3)n2)c1 [CBK066664] | 94.3
Cc1cc(-c2cn3ccnc3c(N3CCOCC3)n2)cc(C)c1O [CBK066691] | 97.4
OCC1CCCN1c1nc(-c2ccc(Oc3ccccc3)cc2)cn2ccnc12 (stereo not drawn) [CBK066713] | 100
CCOc1cccc(-c2cn3ccnc3c(NCc3cc(OC)c(OC)c(OC)c3)n2)c1 [CBK066717] | 96.7
c1cn2cc(-c3ccoc3)nc(NC3CC3)c2n1 [CBK066720] | 102
COC(=O)c1ccc(-c2cn3ccnc3c(NCc3ccncc3)n2)cc1 [CBK066734] | 88.2
O=C1N=C(NC2CCCCCC2)SC1Cc1nc2ccccc2[nH]1 (stereo not drawn) [CBK066789] | 83.7
CCN(Cc1cncn1C)C(CC1CCCCC1)c1ccccc1 (stereo not drawn) [CBK066815T] | 122
O=C(Nc1ccc(Br)cc1C(=O)O)c1cccs1 [CBK066822] | 86.8
COC(=O)c1sccc1Oc1ccc([N+](=O)[O-])cn1 [CBK066826] | 115
N#Cc1cc(F)cc(F)c1NC(=O)c1cccs1 [CBK066832] | 90.2
O=C(Nc1ccc(Br)cc1C(=O)c1ccccc1)c1ccc([N+](=O)[O-])s1 [CBK066838] | 111
N#Cc1sc(-c2ccc(F)cc2)cc1NC(=O)c1cccc([N+](=O)[O-])c1 [CBK066845] | 93.3
N#Cc1ccc(-c2cccs2)nc1SCC(=O)Nc1ccc([N+](=O)[O-])cc1 [CBK066850] | 87.5
COC(=O)c1sccc1NC(=O)c1ccccc1Cl [CBK066860] | 65.5
Cc1sc(C(N)=O)cc1[N+](=O)[O-] [CBK066863] | 106
CN1CCN(c2ccnc3cc(Cl)ccc23)CC1 [CBK066867C] | 86
Cc1cc(N2CCN(CC(=O)c3ccc(Cl)cc3)CC2)c2ccccc2n1 [CBK066868] | 106
COc1ccccc1N1CCN(CC2CN(c3ccccc3)c3ccccc3O2)CC1 (stereo not drawn) [CBK066872C] | 84.7
c1ccc(N2CCN(CC3CN(c4ccccc4)c4ccccc4O3)CC2)cc1 (stereo not drawn) [CBK066876] | 86
CN1CCN(C2c3ccccc3Oc3ccccc32)CC1 [CBK066891] | 93
c1ccc(-c2nnc3ccccc3c2NCCCN2CCOCC2)cc1 [CBK066892] | 93.9
c1ccc(N2CCN(C3c4ccccc4Sc4ccccc43)CC2)cc1 [CBK066894] | 92.1

SMILES | viability at 28.5 h, 10 µM [%]
COc1ccc2nc(C)cc(N3CCOCC3)c2c1 [CBK066896] | 91.2
CCOc1ccc(-c2cc(C(=O)N3CCN(C)CC3)c3ccccc3n2)cc1 [CBK066900] | 99
Clc1ccc(N2CCN(c3cnc4ccccc4n3)CC2)cc1Cl [CBK066903] | 97.8
CN1CCN(c2cc3ncccc3cc2F)CC1 [CBK066904] | 105
COc1ccc2[nH]cc(CCNC(=O)[C@@H]3Cc4c([nH]c5ccccc45)C4(CCN(Cc5ccc(F)cc5)C4)N3)c2c1 (stereo partly drawn) [CBK066937] | 98
CC(=O)N1CCc2c([nH]c3ccccc23)C1CCN(C)Cc1ccc(F)cc1 (stereo not drawn) [CBK066969] | 93.9
Fc1ccc(OCCNCC2NCCc3c2[nH]c2ccccc32)cc1 (stereo not drawn) [CBK066972] | 92.8
O=C1N=C(NCC2CCCCC2)SC1CC(=O)N1Cc2ccccc2C1 (stereo not drawn) [CBK067016] | 85.1
Cc1c(Cl)cccc1CNC(=O)CC1SC(NCC2CCCCC2)=NC1=O (stereo not drawn) [CBK067017] | 91.7
O=c1nc(NC2CCCCC2)sc2ncccc12 [CBK067024T] | 92.6
COc1ccc(C(=O)NCC2(c3ccc(OC)c(OC)c3)CCCCC2)c(OC)c1 [CBK067049] | 82.8
COc1ccc(C2(CNC(=O)c3ccc(C)cc3)CCOCC2)cc1 [CBK067060] | 108
CN(c1ccc(C(O)(C(F)(F)F)C(F)(F)F)cc1)S(=O)(=O)c1cccs1 [CBK067061] | 107
COc1ccc(C2N3CCCN2CC3)cc1 (stereo not drawn) [CBK067068] | 92.3
Cc1nn(C)c(Cl)c1S(=O)(=O)Nc1cccc(-c2cnco2)c1 [CBK067107] | 78.8
Cc1noc(C)c1S(=O)(=O)Nc1cccc(-c2cnco2)c1 [CBK067108] | 97.1
O=S(=O)(Nc1cccc(-c2cnco2)c1)c1ccc(Br)cc1C(F)(F)F [CBK067118] | 93.4
O=S(=O)(Nc1cccc(-c2cnco2)c1)c1ccc(-c2cc(C(F)(F)F)on2)s1 [CBK067124] | 100
O=[N+]([O-])c1cc(S(=O)(=O)Nc2cccc(-c3cnco3)c2)ccc1Cl [CBK067125] | 95.7
O=S(=O)(Nc1cccc(-c2cnco2)c1)c1cc(C(F)(F)F)cc(C(F)(F)F)c1 [CBK067127] | 109
Cc1nn(C)c(Cl)c1S(=O)(=O)Nc1ccc2cn[nH]c2c1 [CBK067141] | 90.2
Cn1nc(-c2ccc(S(=O)(=O)Nc3ccc4cn[nH]c4c3)s2)cc1C(F)(F)F [CBK067156] | 92.8
N#Cc1cn(S(=O)(=O)c2cccc(C(F)(F)F)c2)nc1N [CBK067225] | 92.6

SMILES | viability at 28.5 h, 10 µM [%]
Cc1cc(NS(=O)(=O)c2cccc3cccnc23)n(C)n1 [CBK067242] | 89.1
Cc1cc(NS(=O)(=O)c2cccc([N+](=O)[O-])c2)n(C)n1 [CBK067243] | 99.2
Cc1cc(NS(=O)(=O)c2cccc3nsnc23)n(C)n1 [CBK067246] | 95.4
Cc1cc(NS(=O)(=O)c2cccc3nonc23)n(C)n1 [CBK067247] | 93.7
Cc1cc(NS(=O)(=O)c2ccc(Oc3ccccc3)cc2)n(C)n1 [CBK067249] | 96.2
Cc1cc(NS(=O)(=O)c2ccc3oc(=O)ccc3c2)n(C)n1 [CBK067250] | 99.6
Cc1cc(NS(=O)(=O)c2csc3ccccc23)n(C)n1 [CBK067251] | 89.5
Cc1cc(NS(=O)(=O)c2ccc(N3CCOCC3)nc2)n(C)n1 [CBK067253] | 117
Cc1cc(NS(=O)(=O)c2ccc(Cl)c(Cl)c2)n(C)n1 [CBK067254] | 109
Cc1cc(NS(=O)(=O)c2ccc(Br)cc2C(F)(F)F)n(C)n1 [CBK067255] | 107
Cc1cc(NS(=O)(=O)c2ccc(-c3ccon3)s2)n(C)n1 [CBK067257] | 85.4
Cc1cc(NS(=O)(=O)c2ccc(Cl)c([N+](=O)[O-])c2)n(C)n1 [CBK067259] | 96.8
Cc1cc(NS(=O)(=O)c2cc(C(=O)O)c(Cl)cc2F)n(C)n1 [CBK067260] | 102
Cc1cc(NS(=O)(=O)c2cc(C(F)(F)F)cc(C(F)(F)F)c2)n(C)n1 [CBK067261] | 105
Cc1noc(C)c1S(=O)(=O)Nc1nc(-c2cccnc2)cs1 [CBK067266] | 91.5
Cn1nc(-c2ccc(S(=O)(=O)Nc3nc(-c4cccnc4)cs3)s2)cc1C(F)(F)F [CBK067270] | 88.4
O=S(=O)(Nc1cc(-c2ccco2)n[nH]1)c1ccc(Br)cc1C(F)(F)F [CBK067286] | 96.2
O=C(O)c1cc(S(=O)(=O)Nc2cc(-c3ccco3)n[nH]2)c(F)cc1Cl [CBK067292] | 92.6
CCN(C(=O)CC1SC(NCC2CCCCC2)=NC1=O)c1ccccc1 (stereo not drawn) [CBK067373] | 89.3
CC(C)(C)OC(=O)N1CCC(Oc2nccnc2Cl)CC1 [CBK067386] | 89.8
O=C1C2N=NN(Cc3ccccc3)C2C(=O)N1C1CCCCC1 (stereo not drawn) [CBK067389] | 115
CC(C)CC(CC(C)C)OCC(=O)NCC1(c2ccc3ccccc3c2)CCC1 [CBK067404] | 109
CN1CC[C@]2(c3ccc4c(c3)nnn4C)CC[C@@H](NC(=O)Nc3cccc(C(F)(F)F)c3F)C[C@H]12 [CBK067410] | 99.9

SMILES | viability at 28.5 h, 10 µM [%]
COc1ccc([C@@]23CCC(N)C[C@@H]2N(C)CC3)c(F)c1OC (stereo partly drawn) [CBK067416] | 78.3
Cc1cccc(S(=O)(=O)Nc2cc(OCCN3CCOCC3)c3occc3c2)c1 [CBK067420C] | 90.4
Cc1ccc(S(=O)(=O)NCC(=O)Nc2ccc3cc(Br)cnc3n2)cc1 [CBK067429] | 95.6
COc1ccccc1NC(=O)NCCC1SC(NC2CCCCCC2)=NC1=O (stereo not drawn) [CBK067473] | 91.8
O=[N+]([O-])c1cnc(NS(=O)(=O)c2cccc(C(F)(F)F)c2)s1 [CBK067533] | 104
O=[N+]([O-])c1cnc(NS(=O)(=O)c2ccccc2Br)s1 [CBK067539] | 96.2
O=[N+]([O-])c1cnc(NS(=O)(=O)c2ccc(Br)cc2C(F)(F)F)s1 [CBK067541] | 99.6
Cn1nc(-c2ccc(S(=O)(=O)Nc3ncc([N+](=O)[O-])s3)s2)cc1C(F)(F)F [CBK067542] | 109
O=[N+]([O-])c1cnc(NS(=O)(=O)c2ccc(-c3ccon3)s2)s1 [CBK067543] | 95.2
Cn1nc(-c2ccc(S(=O)(=O)Nc3cccc(Cl)c3Cl)s2)cc1C(F)(F)F [CBK067548] | 92.2
CCCCc1ccc(-c2cnc(N)c3ncccc23)cc1 [CBK067588] | 75.7
CS(=O)(=O)c1ccc(-c2cnc(N)c3ncccc23)cc1 [CBK067593] | 90.5
Nc1ncc(-c2ccc(OC(F)(F)F)cc2)c2cccnc12 [CBK067594] | 98.7
Nc1cc2cccnc2nc1-c1cccnc1 [CBK067602] | 84.8
Nc1cc2cccnc2nc1-c1cc(F)cc(F)c1 [CBK067604] | 88.3
Nc1cc2cccnc2nc1-c1cccc2cccnc12 [CBK067609] | 99.9
COc1ccc(C(C)C)cc1-c1nc2ncccc2cc1N [CBK067614] | 95.8
Nc1ccc2ccc(-c3ccsc3)nc2n1 [CBK067624] | 89.4
Nc1ccc2ccc(-c3ccc4c(c3)CCO4)nc2n1 [CBK067625] | 90
CN(C)c1ccc(-c2ccnc3nc(N)ccc23)cc1 [CBK067640] | 85.8
CS(=O)(=O)c1ccc(-c2ccnc3nc(N)ccc23)cc1 [CBK067648] | 117
